IC50 data for three compounds are collected here from patent US8263624B2, “Aryl-substituted heterocycles, and use thereof” (Bayer Intellectual Property GmbH, priority 2006, dated 2012).

The structures appear in SMILES notation. Counter-ions that a name gives are not always drawn.

The target in the assay is T1, human factor Xa (Homo sapiens, UniProt P00742).
T1 construct: factor Xa, which is formed from the proenzyme factor X
The assay can be described thus: Determination of the factor Xa inhibition (fluorogenic substrate Boc-Ile-Glu-Gly-Arg-AMC). The format is biochemical. The note with it: human factor Xa 1.3 nmol/l, 15 min preincubation at 22° C., substrate 5 μmol/l, pH 7.4. How it is done: • a.1) Determination of the Factor Xa Inhibition
In order to determine the factor Xa inhibition of the substances listed above, a biochemical test system is set up, in which the conversion of a factor Xa substrate is used to determine the enzymatic activity of human factor Xa. Here Factor Xa cleaves aminomethylcoumarin, whose fluorescence is measured, from the peptidic substrate. The determinations are carried out in microtitre plates.
Substances to be tested, in various concentrations, are dissolved in dimethyl sulphoxide and incubated for 15 min at 22° C. with human factor Xa (1.3 nmol/l dissolved in 50 mmol/l of Tris buffer [C,C,C-tris(hydroxymethyl)aminomethane], 100 mmol/l NaCl, 0.1% BSA [bovine serum albumin], pH 7.4). The substrate (5 μmol/l of Boc-Ile-Glu-Gly-Arg-AMC from Bachem) is then added. After an incubation time of 30 min, the sample is excited at a wavelength of 360 nm, and the emission at 460 nm is measured. The measured emissions of the test batches with test substance are compared to the control batches without test substance (only dimethyl sulphoxide instead of test substance in dimethyl sulphoxide), and IC50 values are calculated from the concentration/activity relationships.

T1 sequence (P00742 235-488 limits assumed): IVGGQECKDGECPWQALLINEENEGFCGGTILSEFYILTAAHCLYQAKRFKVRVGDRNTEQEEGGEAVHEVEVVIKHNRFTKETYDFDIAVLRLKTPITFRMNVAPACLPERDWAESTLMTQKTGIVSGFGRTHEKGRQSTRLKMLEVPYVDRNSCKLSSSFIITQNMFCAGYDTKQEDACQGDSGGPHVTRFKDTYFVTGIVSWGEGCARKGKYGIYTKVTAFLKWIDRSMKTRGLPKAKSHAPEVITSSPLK
T1 sequence (P00742 41-179 partner limits assumed): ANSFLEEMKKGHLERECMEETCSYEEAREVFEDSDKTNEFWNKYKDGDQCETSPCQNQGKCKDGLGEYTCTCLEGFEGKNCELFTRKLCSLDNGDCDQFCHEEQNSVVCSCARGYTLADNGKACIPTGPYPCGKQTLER

Compound `O=C(NCc1cn(-c2ccc(N3CCOCC3=O)cc2)nc1-c1ccccc1)c1ccc(Cl)s1` [Example 1, 5-Chloro-N-({1-[4-(3-oxomorpholin-4-yl)phenyl]-3-phenyl-1H-pyrazol-4-yl}methyl)thiophene-2-carboxamide] showed an IC50 of 0.7 nM. That is a sub-nanomolar value.
The same measure for `Cc1cc(-n2cc(CNC(=O)c3ccc(Cl)s3)c(-c3ccccc3)n2)ccc1N1CCOCC1=O` [Example 2, 5-Chloro-N-({1-[3-methyl-4-(3-oxomorpholin-4-yl)phenyl]-3-phenyl-1H-pyrazol-4-yl}methyl)-thiophene-2-carboxamide]: 0.7 nM; for `O=C(NCc1cn(-c2ccc(N3CCOCC3=O)cc2)nc1-c1cccnc1)c1ccc(Cl)s1` [Example 3, 5-Chloro-N-({1-[4-(3-oxomorpholin-4-yl)phenyl]-3-pyridin-3-yl-1H-pyrazol-4-yl}methyl)thiophene-2-carboxamide hydrochloride]: 0.8 nM.

A word on the IC50: it is the point on the concentration scale where inhibition reaches its midpoint.
